Results as given in patent US8192962B2, “Processes for detecting toxic substances” (Daikin Industries, Ltd., priority 2001, dated 2012).

Tested on: Transport facilitation protein genes
Experiment: DNA chip mRNA expression in yeast, transport facilitation protein genes (Table 5)
Type: cell-based, Saccharomyces cerevisiae S288C
Procedure, shortened: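 Values are treated/untreated fluorescence ratios from a whole-genome yeast DNA chip hybridized over 12 hours at 65° C with Cy3- or Cy5-labelled cDNA from poly(A) mRNA. Log-phase S288C yeast in YPD at 25° C had received a single toxic chemical for two hours, dosed to slow growth without killing.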

manganese ethylenebis(dithiocarbamate) [(8)]
The level of expressed mRNA in the presence of chemical substance/The level of expressed mRNA in the absence of chemical substance (yeast gene YBL030C): 0.8
The level of expressed mRNA in the presence of chemical substance/The level of expressed mRNA in the absence of chemical substance (yeast gene YBL099W): 0.8
The level of expressed mRNA in the presence of chemical substance/The level of expressed mRNA in the absence of chemical substance (yeast gene YBR052C): 1.3
The level of expressed mRNA in the presence of chemical substance/The level of expressed mRNA in the absence of chemical substance (yeast gene YBR068C): 1.0
The level of expressed mRNA in the presence of chemical substance/The level of expressed mRNA in the absence of chemical substance (yeast gene YBR127C): 1.1
The level of expressed mRNA in the presence of chemical substance/The level of expressed mRNA in the absence of chemical substance (yeast gene YBR132C): 0.8
The level of expressed mRNA in the presence of chemical substance/The level of expressed mRNA in the absence of chemical substance (yeast gene YBR207W): 0.9
The level of expressed mRNA in the presence of chemical substance/The level of expressed mRNA in the absence of chemical substance (yeast gene YBR293W): 0.9
The level of expressed mRNA in the presence of chemical substance/The level of expressed mRNA in the absence of chemical substance (yeast gene YBR294W): 1.0
The level of expressed mRNA in the presence of chemical substance/The level of expressed mRNA in the absence of chemical substance (yeast gene YBR295W): 0.9
The level of expressed mRNA in the presence of chemical substance/The level of expressed mRNA in the absence of chemical substance (yeast gene YBR298C): 0.5
The level of expressed mRNA in the presence of chemical substance/The level of expressed mRNA in the absence of chemical substance (yeast gene YCL025C): 0.7
The level of expressed mRNA in the presence of chemical substance/The level of expressed mRNA in the absence of chemical substance (yeast gene YCL038C): 1.2
The level of expressed mRNA in the presence of chemical substance/The level of expressed mRNA in the absence of chemical substance (yeast gene YCR024C-A): 0.8
The level of expressed mRNA in the presence of chemical substance/The level of expressed mRNA in the absence of chemical substance (yeast gene YCR037C): 0.7
The level of expressed mRNA in the presence of chemical substance/The level of expressed mRNA in the absence of chemical substance (yeast gene YCR098C): 1.0
The level of expressed mRNA in the presence of chemical substance/The level of expressed mRNA in the absence of chemical substance (yeast gene YDL128W): 0.8
The level of expressed mRNA in the presence of chemical substance/The level of expressed mRNA in the absence of chemical substance (yeast gene YDL198C): 1.1
The level of expressed mRNA in the presence of chemical substance/The level of expressed mRNA in the absence of chemical substance (yeast gene YDL210W): 1.1
The level of expressed mRNA in the presence of chemical substance/The level of expressed mRNA in the absence of chemical substance (yeast gene YDL245C): 1.2
The level of expressed mRNA in the presence of chemical substance/The level of expressed mRNA in the absence of chemical substance (yeast gene YDR038C): 0.9
The level of expressed mRNA in the presence of chemical substance/The level of expressed mRNA in the absence of chemical substance (yeast gene YDR039C): 0.6
The level of expressed mRNA in the presence of chemical substance/The level of expressed mRNA in the absence of chemical substance (yeast gene YDR086C): 1.9
The level of expressed mRNA in the presence of chemical substance/The level of expressed mRNA in the absence of chemical substance (yeast gene YDR270W): 1.2
The level of expressed mRNA in the presence of chemical substance/The level of expressed mRNA in the absence of chemical substance (yeast gene YDR298C): 1.2
The level of expressed mRNA in the presence of chemical substance/The level of expressed mRNA in the absence of chemical substance (yeast gene YDR342C): 1.2
The level of expressed mRNA in the presence of chemical substance/The level of expressed mRNA in the absence of chemical substance (yeast gene YDR343C): 1.2
The level of expressed mRNA in the presence of chemical substance/The level of expressed mRNA in the absence of chemical substance (yeast gene YDR345C): 1.2
The level of expressed mRNA in the presence of chemical substance/The level of expressed mRNA in the absence of chemical substance (yeast gene YDR387C): 0.7
The level of expressed mRNA in the presence of chemical substance/The level of expressed mRNA in the absence of chemical substance (yeast gene YDR497C): 0.6
The level of expressed mRNA in the presence of chemical substance/The level of expressed mRNA in the absence of chemical substance (yeast gene YEL027W): 0.9
The level of expressed mRNA in the presence of chemical substance/The level of expressed mRNA in the absence of chemical substance (yeast gene YEL063C): 0.6
The level of expressed mRNA in the presence of chemical substance/The level of expressed mRNA in the absence of chemical substance (yeast gene YEL065W): 0.9
The level of expressed mRNA in the presence of chemical substance/The level of expressed mRNA in the absence of chemical substance (yeast gene YER053C): 1.3
The level of expressed mRNA in the presence of chemical substance/The level of expressed mRNA in the absence of chemical substance (yeast gene YFL011W): 0.8
The level of expressed mRNA in the presence of chemical substance/The level of expressed mRNA in the absence of chemical substance (yeast gene YFL041W): 1.0
The level of expressed mRNA in the presence of chemical substance/The level of expressed mRNA in the absence of chemical substance (yeast gene YFL050C): 0.9
The level of expressed mRNA in the presence of chemical substance/The level of expressed mRNA in the absence of chemical substance (yeast gene YFL054C): 1.5
The level of expressed mRNA in the presence of chemical substance/The level of expressed mRNA in the absence of chemical substance (yeast gene YGL006W): 0.9
The level of expressed mRNA in the presence of chemical substance/The level of expressed mRNA in the absence of chemical substance (yeast gene YGL008C): 0.7
The level of expressed mRNA in the presence of chemical substance/The level of expressed mRNA in the absence of chemical substance (yeast gene YGL104C): 0.8
The level of expressed mRNA in the presence of chemical substance/The level of expressed mRNA in the absence of chemical substance (yeast gene YGL167C): 0.8
The level of expressed mRNA in the presence of chemical substance/The level of expressed mRNA in the absence of chemical substance (yeast gene YGL255W): 0.7
The level of expressed mRNA in the presence of chemical substance/The level of expressed mRNA in the absence of chemical substance (yeast gene YGR055W): 1.1
The level of expressed mRNA in the presence of chemical substance/The level of expressed mRNA in the absence of chemical substance (yeast gene YGR065C): 1.0
The level of expressed mRNA in the presence of chemical substance/The level of expressed mRNA in the absence of chemical substance (yeast gene YGR082W): 0.8
The level of expressed mRNA in the presence of chemical substance/The level of expressed mRNA in the absence of chemical substance (yeast gene YGR096W): 1.0
The level of expressed mRNA in the presence of chemical substance/The level of expressed mRNA in the absence of chemical substance (yeast gene YGR138C): 1.0
The level of expressed mRNA in the presence of chemical substance/The level of expressed mRNA in the absence of chemical substance (yeast gene YGR191W): 0.7
The level of expressed mRNA in the presence of chemical substance/The level of expressed mRNA in the absence of chemical substance (yeast gene YGR197C): 0.8
